This note sets out measurements from PubChem BioAssay (NCI).

Some test systems named below: UO-31 renal; SF-539 CNS; U251 CNS; T-47D breast; NCI-H460 lung; SW-620 colon; NCI/ADR-RES ovarian; OVCAR-5 ovarian; SN12C renal; SR leukemia; SF-268 CNS; UACC-62 melanoma; ACHN renal; MCF7 breast; SNB-19 CNS; M14 melanoma; DU-145 prostate; NCI-H522 lung; NCI-H226 lung; A498 renal.
Experiment in all cases: NCI-60 cell line screen, 48 h

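Grown in 96-well plates, cells were treated for 48 hours with each compound at five concentrations. Insufficient inhibition: endpoint recorded as highest concentration tested. TGI is the concentration that stops growth completely.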

With `COc1ccc(/C=C2\N=C(c3ccccc3)N(N=C3NC(=O)CC(=O)N3)C2=O)cc1`, the TGI in the assay with UO-31 renal, with SF-539 CNS, in the assay on U251 CNS, with T-47D breast, in the assay on NCI-H460 lung and in the assay with SW-620 colon was more than 100 µM each time. Moreover, the TGI with NCI/ADR-RES ovarian, in the assay with OVCAR-5 ovarian, with SN12C renal, in the assay on SR leukemia, with SF-268 CNS and in the assay on UACC-62 melanoma was more than 100 µM in each case. For the same compound, the TGI with ACHN renal, in the assay on MCF7 breast, in the assay with SNB-19 CNS, in the assay with M14 melanoma, in the assay on DU-145 prostate and in the assay with NCI-H522 lung was more than 100 µM throughout. Besides, the TGI with NCI-H226 lung and in the assay with A498 renal was more than 100 µM each time.

For `CN(C)c1ccccc1CN1CCCN(Cc2ccccc2N(C)C)C1c1ccncc1`, the TGI in the assay on UO-31 renal was 13.9 µM; in the assay on SF-539 CNS, 36 µM; with U251 CNS, more than 100 µM; in the assay on T-47D breast, 38.7 µM; in the assay on NCI-H460 lung, 28.5 µM; with SW-620 colon it was 42.2 µM. Also, the TGI in the assay with NCI/ADR-RES ovarian worked out at 58 µM; in the assay on OVCAR-5 ovarian, 40.9 µM; in the assay on SN12C renal, 62.2 µM; in the assay with SR leukemia it was 21.7 µM; with SF-268 CNS, 37.9 µM; in the assay on UACC-62 melanoma, 27.6 µM. Also, the TGI worked out at 99.2 µM in the assay on ACHN renal; 29.6 µM with MCF7 breast; 33 µM with SNB-19 CNS; 8.62 µM with M14 melanoma; 31.5 µM in the assay on DU-145 prostate; 32.5 µM in the assay with NCI-H522 lung. Also, the TGI was 38.7 µM in the assay with NCI-H226 lung and 24.8 µM with A498 renal.

As for `Cc1ccc(OC2CC(n3cnc4ncnc(Cl)c43)OC2Oc2ccc(C)cc2)cc1` (stereo not given), the TGI in the assay with UO-31 renal was 23.9 µM; in the assay on SF-539 CNS, 31.5 µM; with U251 CNS it was more than 100 µM; with T-47D breast, 28.8 µM; with NCI-H460 lung, more than 100 µM; in the assay with SW-620 colon, more than 100 µM. Besides, the TGI in the assay on NCI/ADR-RES ovarian was 64.9 µM; in the assay on OVCAR-5 ovarian, 58.3 µM; with SN12C renal, more than 100 µM; in the assay with SR leukemia, more than 100 µM; in the assay on SF-268 CNS, 50.1 µM; in the assay on UACC-62 melanoma, 96.7 µM. Also, the TGI was 10.5 µM with ACHN renal; 29.9 µM in the assay with MCF7 breast; 42.5 µM in the assay on SNB-19 CNS; 65.8 µM with M14 melanoma; 53.2 µM in the assay on DU-145 prostate; more than 100 µM with NCI-H522 lung. Further, the TGI is 31 µM in the assay with NCI-H226 lung and more than 100 µM with A498 renal.

With `CSCCCNC(=O)c1csc(-c2csc(C(CNC(=O)OC(C)(C)C)CNC(=O)OC(C)(C)C)n2)n1`, the TGI in the assay with UO-31 renal is more than 100 µM; with SF-539 CNS, more than 100 µM; with U251 CNS, 71.5 µM; in the assay on T-47D breast, more than 100 µM; with NCI-H460 lung, more than 100 µM; with SW-620 colon, more than 100 µM. In addition, the TGI with NCI/ADR-RES ovarian is more than 100 µM; in the assay with OVCAR-5 ovarian, more than 100 µM; in the assay on SN12C renal, more than 100 µM; in the assay on SR leukemia, 70.1 µM; with SF-268 CNS, more than 100 µM; in the assay with UACC-62 melanoma, 40.4 µM. The TGI was more than 100 µM in the assay on ACHN renal; more than 100 µM in the assay on MCF7 breast; more than 100 µM in the assay on SNB-19 CNS; more than 100 µM in the assay with M14 melanoma; more than 100 µM with DU-145 prostate; 94.5 µM in the assay on NCI-H522 lung. Besides, the TGI in the assay with NCI-H226 lung and with A498 renal was more than 100 µM each time.

For `Cc1cc(C)nc(SC(C)C(=O)N/N=C/c2ccc(OCc3ccccc3)cc2)n1` (stereo not given), the TGI in the assay with UO-31 renal was more than 100 µM; with SF-539 CNS it was more than 100 µM; in the assay with U251 CNS, more than 100 µM; with T-47D breast it was 63.8 µM; in the assay on NCI-H460 lung, more than 100 µM; in the assay on SW-620 colon, more than 100 µM. For the same compound, the TGI in the assay with NCI/ADR-RES ovarian is more than 100 µM; in the assay with OVCAR-5 ovarian, more than 100 µM; with SN12C renal it was more than 100 µM; in the assay on SR leukemia it was 38.1 µM; in the assay on SF-268 CNS it was more than 100 µM; with UACC-62 melanoma, 92.5 µM. Further, the TGI in the assay with ACHN renal was more than 100 µM; in the assay on MCF7 breast, 90.5 µM; with SNB-19 CNS it was more than 100 µM; with M14 melanoma, more than 100 µM; in the assay with DU-145 prostate it was more than 100 µM; with NCI-H522 lung, more than 100 µM. The TGI was 93.5 µM in the assay on NCI-H226 lung and more than 100 µM with A498 renal.

On to `N#C/C(=C\NC(=S)c1ccncc1)c1nc2ccccc2s1`, for which the TGI in the assay with UO-31 renal, in the assay with SF-539 CNS, in the assay on U251 CNS, in the assay on T-47D breast, with NCI-H460 lung and with SW-620 colon was more than 100 µM throughout. Further, the TGI in the assay with NCI/ADR-RES ovarian, in the assay with OVCAR-5 ovarian, with SN12C renal, in the assay with SR leukemia, in the assay with SF-268 CNS and in the assay with UACC-62 melanoma was more than 100 µM throughout. The TGI in the assay on ACHN renal, in the assay with MCF7 breast, with SNB-19 CNS, in the assay with M14 melanoma, in the assay with DU-145 prostate and in the assay on NCI-H522 lung was more than 100 µM throughout. The TGI in the assay with NCI-H226 lung and in the assay with A498 renal was more than 100 µM throughout.

Turning to `O=c1oc2cc(O)ccc2c(O)c1C(c1cccnc1)c1c(O)c2ccc(O)cc2oc1=O`, the TGI with UO-31 renal, in the assay on SF-539 CNS, in the assay with U251 CNS, in the assay on T-47D breast, with NCI-H460 lung and with SW-620 colon was more than 100 µM each time. The TGI with NCI/ADR-RES ovarian, in the assay with OVCAR-5 ovarian, with SN12C renal, with SR leukemia, in the assay on SF-268 CNS and in the assay on UACC-62 melanoma was more than 100 µM throughout. In addition, the TGI in the assay with ACHN renal, in the assay with MCF7 breast, in the assay with SNB-19 CNS, in the assay on M14 melanoma, with DU-145 prostate and with NCI-H522 lung was more than 100 µM throughout. Further, the TGI with NCI-H226 lung and with A498 renal was more than 100 µM each time.
